Laboratory results reported in patent US11926593B1, “6′-(3-bromophenyl)-2′-methoxy-3,4′-bipyridine-3′-carbonitrile as an antioxidant compound” (KING FAISAL UNIVERSITY, priority 2023, dated 2024).

Test: DPPH radical scavenging antioxidant test
Assay type: biochemical
Settings: 517 nm; for Inhibition (radical scavenging inhibition): DPPH 0.2 mL (0.75 mM), compound 3 μM in ethanol, 30 minutes in the dark
Method: The antioxidant activity of 6′-(3-bromophenyl)-2′-methoxy-3,4′-bipyridine-3′-carbonitrile was investigated by 2,2-diphenyl-1-picrylhydrazyl (DPPH) in vitro tests that employ vitamin C as the positive control.
The antioxidant properties of the 6′-(3-bromophenyl)-2′-methoxy-3,4′-bipyridine-3′-carbonitrile compound were studied by adding 0.2 mL DPPH (0.75 mM)) to 6′-(3-bromophenyl)-2′-methoxy-3,4′-bipyridine-3′-carbonitrile (3 μM) (4) in ethanol. After 30 minutes of incubation in the dark, the absorbance was read against a blank at 517 nm. Ascorbic acid (vitamin C) was used as standard antioxidants (positive control). A blank sample was prepared by 0.2 mL of DPPH in 3 mL ethanol. A negative control sample was run using ethanol instead of the sample. The radical scavenging inhibition was calculated using the following equation: […]
The antioxidant activity for the synthesized compound is listed in Table 1, using Vitamin C as a reference.

Structure (SMILES)	Inhibition (radical scavenging inhibition)	antioxidant potential compared to vitamin C (DPPH in vitro test, vitamin C as positive control)
COc1nc(-c2cccc(Br)c2)cc(-c2cccnc2)c1C#N [Product 4, 6′-(3-bromophenyl)-2′-methoxy-3,4′-bipyridine-3′-carbonitrile]	50%	high potential as an antioxidant
O=C1O[C@H]([C@@H](O)CO)C(O)=C1O [vit c, Ascorbic acid, reference compound]	74%	–
